In patent US20230172923A1, “METHODS OF TREATING CYTOKINE-RELATED ADVERSE EVENTS” (BRISTOL-MYERS SQUIBB COMPANY, priority 2020, published 2023):
“Also recorded” adds a separate entry of the source.

Tests used:
Format in all cases: cell-based, human
IL-6 [1] = assay: LPS-induced IL-6 secretion from isolated macrophages (M0) (MSD); conditions: overnight (~17 hours) 1000 nM lenalidomide, 100 nM pomalidomide, 10 nM iberdomide or 1 nM Compound 1; then LPS
Experimental: Monocytes from healthy volunteers were seeded at a concentration of 3×10^5 cells/ml for 4 days with RPMI 1640 media containing M-CSF (50 ng/mL) (50% media replaced after 2 days) to obtain naive macrophages (M0). At the end of day 4, macrophages were treated with the indicated concentration of IMiD/CELMoD agents overnight (~17 hours). The next morning, the macrophages were stimulated with the indicated concentration of LPS for 8 hours, before IL-6 levels in the supernatant were assessed using an MSD assay.
Peripheral blood mononuclear cells (PBMCs) were isolated from the blood of two healthy human donors by Ficoll cell separation, and then monocytes were isolated from these PBMCs by positive selection using MACS […] magnetic microbeads. The isolated monocytes were seeded at a concentration of 3×10^5 cells/ml and incubated for 4 days with RPMI 1640 media containing M-CSF (50 ng/mL) (50% media replaced after 2 days) to obtain naive macrophages (M0). At the end of day 4, the macrophages were incubated overnight (~17 hours) with 1000 nM lenalidomide, 100 nM pomalidomide, 10 nM iberdomide or 1 nM Compound 1, or control DMSO (0.001%), before stimulation with various concentrations of LPS for IL-6 secretion.
After 6 hours, the cell culture was spun down at 300 g for 5 minutes to remove cells, and the supernatant was subjected to MSD analysis to quantify secreted IL-6.

IL-6 [2] = assay: CC-93269-induced IL-6 secretion, co-culture of PBMCs and K562-BCMA cells (MSD); conditions: 24 hours; for secretion of IL-6 associated with CC-93269 activity, PBMCs + K562-BCMA: pre-treatment 1000 nM lenalidomide, 100 nM pomalidomide, 10 nM iberdomide or 1 nM Compound 1, T-cells to target cells 5:1
Experimental: (§1) Fresh PBMCs were isolated from healthy volunteers, the percentage of CD3+ T-cells (total) was quantified by flow cytometry, and the PBMCs were treated with 1 nM Compound 1 (CC-92480) or control DMSO overnight. The next morning, target cells (K562-BCMA, which overexpress surface BCMA at a very high level) or control cells (K562-MCB, no BCMA expression) were added to the wells at a ratio of 5:1, T-cells to target cells, followed by addition of CC-93269 at the indicated concentrations. At 6-, 24- and 48-hours post-incubation, the cell culture media was collected and levels of IL-6 in the supernatant were assessed using an MSD assay.
The circles indicate independent donors and the bars indicate median values; not all donors are shown because a data cut-off for the bottom ~10% of IL-6 concentrations, below 200 pg/ml, was used to eliminate small changes that could skew the result and to increase confidence in results.
as §1, with “the indicated concentrations of IMiD/CELMoD agents” for “1 nM Compound 1 (CC-92480)”, “level)” for “level) or control cells (K562-MCB, no BCMA expression)”, “24 hours” for “6-, 24- and 48-hours”
Fresh PBMCs were isolated from the blood (buffy coat) of healthy human volunteers by Ficoll based cell separation. The percentage of CD3+ T-cells (total) in the PBMCs was quantified by flow cytometry. The isolated PBMCs were seeded in 12-well plates at a concentration of 1.5×10^6 cells/ml and treated with 1 nM Compound 1 (CC-92480), 1000 nM lenalidomide, 100 nM pomalidomide, 10 nM iberdomide, or control DMSO overnight (~17 hours).
After overnight incubation, target K562-BCMA cells (overexpress surface BCMA at a very high level) or control K562-MCB cells (no BCMA expression) were added to the wells at a ratio of 5:1, T-cells to target cells. K562-BCMA and K562-MCB are an isogenic pair that are derived from a chronic myelogenous leukemia (CML,) cell line. CC-93269 was added to the co-culture at various concentrations and incubated. CC-93269 is an anti-BCMA anti-CD3 bispecific T cell-engaging antibody and is also referred to herein as 42-TCBcv.
At 6, 24 and 48 hours post-incubation, the cell culture media was collected from all samples, spun down at 300 g for 5 minutes to remove cells and the supernatant was subjected to cytokine analysis to quantify secreted levels of IL-6 using an MSD assay.

MIP-1β = assay: LPS-stimulated PBMC cytokine production, multiplex cytokine analysis: MIP-1β; conditions: Homo sapiens; PBMC 2×10^6 cells/ml, compound 1 hour, then 1 ng/ml LPS 18 hours
Experimental: (§2) Peripheral blood mononuclear cells (PBMCs) were isolated from the blood of healthy human donors by Ficoll cell separation. […] Supernatant samples were subjected to multiplex cytokine analysis (Luminex IS100 instrument) to quantify secreted levels of IL-6, IL-8, IL1-beta (IL-1β), GM-CSF, MDC, MIP-1alpha (MIP-1α), MIP-1beta (MIP-1β) and TNF-alpha (TNF-α) (see e.g. FIGS. 7A-C). IC50 (half maximal inhibitory concentration) values were calculated to measure the potency of each IMiD compound in inhibiting LPS-stimulated secretion of each cytokine (see Table 25).

IL-6 [3] = assay: LPS-stimulated PBMC cytokine production, multiplex cytokine analysis: IL-6; conditions: Homo sapiens, PBMC, PBMC 2×10^6 cells/ml, compound 1 hour, then 1 ng/ml LPS 18 hours
Experimental: as §2

IC50 (MIP-1β) [µM]	IC50 (IL-6 [3]) [µM]	SMILES	LPS-induced IL-6 secretion from macrophages (IL-6 [1])	median reduction in IL-6 levels relative to DMSO control (IL-6 [2]; 1 nM Compound 1 pre-treatment, 10 ng/ml CC-93269, PBMCs from 15 healthy donors)	IL-6 secretion at CC-93269 concentrations up to 10,000 ng/mL, PBMCs + K562-BCMA (IL-6 [2]; Compound 1 pre-treatment)	secretion of IL-6 associated with CC-93269 activity, PBMCs + K562-BCMA (IL-6 [2])
–	–	N#Cc1ccc(N2CCN(Cc3ccc(COc4cccc5c4CN(C4CCC(=O)NC4=O)C5=O)cc3)CC2)c(F)c1 (stereo not drawn) [Compound 1, 4-(4-(4-(((2-(2,6-dioxopiperidin-3-yl)-1-oxoisoindolin-4-yl)oxy)methyl)benzyl)piperazin-l-yl)-3-fluorobenzonitrile]	diminished	about two-fold	suppresses	diminished/attenuated; also recorded: suppressed
> 10	0.0038	O=C1CC[C@H](N2Cc3c(OCc4ccc(CN5CCOCC5)cc4)cccc3C2=O)C(=O)N1 [Iberdomide, (S)-3-(4-((4-(morpholinomethyl)benzyl)oxy)-1-oxoisoindolin-2-yl)piperidine-2,6-dione]	diminished	–	–	diminished/attenuated; also recorded: suppressed
> 10	1.2	Nc1cccc2c1CN(C1CCC(=O)NC1=O)C2=O (stereo not shown) [Lenalidomide, 3-(4-amino-1-oxo-2,3-dihydro-1H-isoindol-2-yl) piperidine-2,6-dione]	diminished	–	–	diminished/attenuated; also recorded: suppressed
> 10	0.059	Nc1cccc2c1C(=O)N(C1CCC(=O)NC1=O)C2=O (stereo not shown) [Pomalidomide, 4-amino-2-(2,6-dioxopiperidine-3-yl)isoindoline-1,3-dione]	diminished	–	–	diminished/attenuated; also recorded: suppressed
